Our source for the GI50 and TGI values is PubChem BioAssay (NCI).

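Test compounds were applied to cells in 96-well plates for 48 hours at 5 doses. Here, GI50 denotes the concentration required for 50% inhibition of growth. The concentration for full growth arrest is given as TGI.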

Test in all cases: DTP human tumour cell line panel, 48 h
Test [1] has as its system NCI-H23 lung.
The subject of test [2] is NCI-H522 lung.
Test [3] relates to UACC-257 melanoma.
For test [4], the system named is CAKI-1 renal.
For test [5], the system named is OVCAR-3 ovarian.
Test [6] deals with A498 renal.
The subject of test [7] is MOLT-4 leukemia.
For test [8], the system named is SK-MEL-28 melanoma.
Test [9] relates to MDA-MB-435.
Test [10] relates to SNB-19 CNS.

In general, GI50 refers to the concentration that inhibits growth by half. The term TGI denotes the concentration giving total growth inhibition. Low values mean greater sensitivity of the cells, high ones lower sensitivity of the cells. As for `O=c1oc2ccc(Br)cc2c(=O)n1-c1ccc(I)cc1F`, the GI50 in test [1] was 328 nM; in test [2] it was 277 nM; in test [3] it was 328 nM; in [4] it was 229 nM; in [5] it was 336 nM; in [6], 150 nM. The GI50 was 579 nM in test [7], 347 nM in test [8], 409 nM in [9] and 363 nM in test [10]. In addition, the TGI is 1890 nM in test [1]; 1650 nM in test [2]; 1910 nM in test [3]; 1160 nM in test [4]; 8520 nM in [5]; 377 nM in [6]. In addition, the TGI in [7] is 3220 nM; in [8], 1750 nM; in test [9], 3820 nM; in test [10], > 70000 nM.
